# In patent US20110257220A1, “3,11 b-cis-Dihydrotetrabenazine for the Treatment of Schizophrenia and Other Psychoses” (CAMBRIDGE LABORATORIES (IRELAND) LIMITED, priority 2005, published 2011):
# Assays:
# [1] = tested on: female hooded-Lister rats; test: Novel object recognition (NOR) task, sub-chronic PCP-induced cognitive deficit; assay type: in vivo, rat; conditions: 0.2 mg/kg risperidone i.p.; sub-chronic PCP rats; did not reach statistical significance; FIG. 3
# From the text: Certain pre-clinical tests allow the observation of relatively subtle cognitive deficits in the rat that resemble cognitive symptoms in subjects with schizophrenia. The cognitive deficits observed are seen in behaviours such as working memory deficits which may be measured by recognition tasks such as the novel object recognition (NOR) paradigm. A recognition memory task allows the comparison between presented stimuli and previously stored information. Ennaceur & Delacour, Behav. Brain Res. 31: 47-59 (1988) described the NOR test in rats which was based on the differential exploration of familiar and new objects. The NOR test is a non-rewarded, ethologically relevant paradigm based on the spontaneous exploratory behaviour of rats which measures working memory. Each session consists of two trials. In the first trial, the rats are exposed to two identical objects in an open field. During the second trial, rats are exposed to two dissimilar objects, one familiar object from the first trial and one new object. Object recognition in rats can be measured as the difference in time spent exploring the familiar and the new object.
# The abovementioned rodent model was used to assess the effects of the Isomer A on sub-chronic PCP-induced deficits in working memory using the novel object recognition (NOR) paradigm. The working hypothesis was that both acute and sub-chronic treatment with Isomer A will attenuate the selective working memory deficit induced by sub-chronic PCP as measured in the NOR test paradigm.
# Rats are allowed to habituate to the empty test box and the behavioural test room environment for 1 hour on day 1. Prior to behavioural testing on day 2 rats are given a further 3 minutes habituation.
# Following the 3 minute habituation period, the rats are given two 3 minute trials (T1 and T2) which are separated by a 1 minute inter-trial interval in the home cage during which the objects are changed.
# In this trial, the animals are allowed to explore two identical objects (A1 and A2) for 3 minutes.
# In this trial, the animals explore a familiar object (A) from T1 and a novel object (B) for 3 minutes. The familiar object presented during T2 is a duplicate of the object presented in T1 in order to avoid any olfactory trails.
# The object exploration is defined by animals licking, sniffing or touching the object with the forepaws whilst sniffing, but not leaning against, turning around, standing or sitting on the object. The exploration time (s) of each object (A1, A2, A and B) in each trial are recorded using two stopwatches and the following factors are calculated: • Total exploration time of both objects in the acquisition trial (s). • Total exploration time of both objects in the retention trial (s). • Habituation of exploratory activity. The LMA includes the exploration time, as measured by the number of lines crossed, for both the trials. • Discrimination index, which is calculated as shown below;
# (time spent exploring novel object−time spent exploring familiar object)÷total time spent in exploring the objects
# Behaviour in all trials was recorded on video for subsequent blind scoring.
# 50 female hooded-Lister rats (Harlan, UK) were used as subjects for these studies. Rats were housed in groups of 5 under standard laboratory conditions under a 12 hr light:dark cycle, lights on at 0700 hr. All testing was carried out in the light phase. Food and water were freely provided. […]
# [2] = tested on: female hooded-Lister rats; conditions: risperidone; Grayson et al; cited from earlier work
compound,measurement,setting,value
"Cc1nc2n(c(=O)c1CCN1CCC(c3noc4cc(F)ccc34)CC1)CCCC2 [risperidone, reference compound]",Discrimination index (DI),[1],improved
same,Sub-chronic PCP-induced deficit in NOR paradigm,[2],efficacy of risperidone to attenuate
